Twelve molecules from ChEMBL document CHEMBL1641553, “Antimalarials based on the dioxane scaffold of plakortin. A concise synthesis and SAR studies” (Bioorg Med Chem, 2011) can be followed below.

Test [1] concerns Plasmodium falciparum. Nature of the test: Antimalarial activity against chloroquine-resistant Plasmodium falciparum W2 infected in human A-positive red blood cells after 72 hrs by lactate dehydrogenase assay. The conditions noted are these: W2, 72 h. The test is classed as functional, organism-based.
The subject of test [2] is Plasmodium falciparum. Nature of the test: Antimalarial activity against chloroquine-sensitive Plasmodium falciparum D10 infected in human A-positive red blood cells after 72 hrs by lactate dehydrogenase assay. Type of test: functional, organism-based. The note with it: D10, 72 h.

Turning to `CCCCCC/C=C/C=O` [2-NONENAL], the IC50 in test [1] came to 0.39 µM; in test [2], 0.87 µM.
`CCCCC[C@@H]1OO[C@H](CC(=O)OCC)[C@H](Br)[C@H]1Br`: the IC50 was found to be 5.65 µM in test [1] and 9.12 µM in test [2].
The like results for `CCCCCC/C=C/C=C/C(=O)OCC` were, in that order, 0.43 µM and 0.9 µM.
Consider `CCCCC[C@H]1C=C[C@@H](CC(=O)OCC)OO1`, for which the IC50 in test [1] was determined as 1.49 µM; in test [2], 1.2 µM.
With `CCCCC[C@@H]1OO[C@H](CC(=O)OCC)[C@@H]2O[C@@H]21`, the IC50 in test [1] and in test [2] was more than 30 µM in each case.
As for `CCCCC[C@@H]1OO[C@H](CC(=O)OCC)[C@H]2O[C@H]21`, the concentration for half-maximal inhibition (IC50) in test [1] was 10.3 µM; in test [2], 22.1 µM.
On to `CCCCC[C@@H]1OO[C@H](CC(=O)OCC)[C@@H](O)[C@H]1O`, for which the IC50 in test [1] and in test [2] was more than 30 µM each time.
On to `CCCCC[C@H]1C=C[C@@H](CCOC(C)=O)OO1`, for which the results for the IC50 in test [1] and in test [2] were 12.5 µM and 21.9 µM, respectively.
The matching figures for `CCCCC[C@@H]1OO[C@H](CC(=O)OCC)[C@@H](Br)[C@@H]1Br`: 5.11 µM and 8.15 µM.
On to `CCCCC[C@H]1C=C[C@@H](CC(=O)O)OO1`, for which the IC50 in test [1] worked out at 3.42 µM; in test [2], 3.33 µM.
The matching figures for `CCCCC[C@H]1C=C[C@@H](CCO)OO1`: more than 30 µM and more than 30 µM.
Take `CCCCC[C@H](O)/C=C\[C@@H](CC(=O)OCC)OCCCC`: the IC50 in test [1] and in test [2] was more than 30 µM throughout.

The term IC50 denotes the concentration at which inhibition is half-maximal. A higher IC50 goes with weaker potency.
